Laboratory results as given in patent EP3722295A1, “ANTI-VIRAL AND ANTI-CANCER ACTIVITY OF PYRIDO[2,3-D]PYRIMIDINE AND OXADIAZIOLE COMPOUNDS” (priority 2019, dated 2020).
Where two headings read alike, the source gives them in different places.

Key:
[1] = molecular target: T1, FOS:JUN (Homo sapiens, UniProt P01100+P05412); assay: FOS:JUN split luciferase interaction assay (specificity control); format: cell-based
T1 construct: expressed in transfected cells

[2] = test system: PB2 mRNA; assay: PB2 mRNA splicing, semi-quantitative RT-PCR; format: cell-based, influenza A/WSN/33; settings: WSN-infected A549 cells, 60 µM
Method: (§1) Total RNA and poly(A)+ RNAs were extracted subsequently using the RNeasy Mini Kit (Qiagen) and Oligotex mRNA Mini kit (Qiagen), following the manufacturer's protocol. Reverse transcription (RT) was performed on 5-10 ng of total mRNA (or poly(A)+ RNA equivalent) using the Maxima First Strand cDNA Synthesis Kit (Thermo Scientific). Quantitative real-time PCR was performed on 2 µl of a 1/10 dilution of the RT reaction using the Luminaris Color Probe qPCR Master Mix (Thermo Scientific) and a Light Cycler 480 (Roche). The levels of NS1/NS2 and M1/M2 mRNAs were determined and normalized with respect to GAPDH mRNA levels using the protocol described in (23). The levels of PB2/PB2-S1 mRNAs were determined by semi-quantitative RT-PCR as described in (35).

[3] = test system: viral NS1 mRNA; assay: NS1 mRNA splicing, quantitative real-time PCR; format: cell-based, influenza A/WSN/33; settings: WSN-infected A549 cells, 60 µM, 6 h incubation
Method: as §1

[4] = test system: viral M1 mRNAs; assay: M1 mRNA splicing, RT-qPCR; format: cell-based, influenza A/WSN/33; settings: WSN-infected A549 cells, 60 µM
Method: as §1

[5] = test system: RSV-Firefly virus; assay: RSV-Firefly replication assay (specificity control); format: cell-based, human Respiratory Syncytial Virus
[6] = molecular target: RED-SMU1 complex (Homo sapiens, UniProt Q2TAY7); assay: In cellulo split luciferase-based RED-SMU1 interaction assay; format: cell-based; settings: for inhibition at 60 µM: A549 cells, relative to DMSO
[7] = test system: WSN-PB2-Nanoluc virus; format: cell-based, influenza A/WSN/33
[8] = test system: A549 cells; assay: Cell viability assay (CellTiter-Glo, ATP levels) and observation of cell monolayers; format: cell-based, human
Method: Cell viability was assessed using the CellTiter-Glo® One Solution Assay kit (Promega) according to the manufacturer's instruction.

[9] = physchem
[10] = molecular target: T2, endogenous RED-SMU1 complex (Homo sapiens, UniProt Q2TAY7); assay: Western blot of steady-state levels of endogenous RED and SMU1 proteins; format: cell-based
T2 construct: Effect on the steady-state levels of the endogenous RED and SMU1 proteins; endogenous in cells; host or cells: A549

[11] = test system: WSN virus; assay: Production of infectious particles in A549 cells, plaque assay; format: cell-based, influenza A/WSN/33; settings: 60 µM

T1 sequence (P01100 whole entry): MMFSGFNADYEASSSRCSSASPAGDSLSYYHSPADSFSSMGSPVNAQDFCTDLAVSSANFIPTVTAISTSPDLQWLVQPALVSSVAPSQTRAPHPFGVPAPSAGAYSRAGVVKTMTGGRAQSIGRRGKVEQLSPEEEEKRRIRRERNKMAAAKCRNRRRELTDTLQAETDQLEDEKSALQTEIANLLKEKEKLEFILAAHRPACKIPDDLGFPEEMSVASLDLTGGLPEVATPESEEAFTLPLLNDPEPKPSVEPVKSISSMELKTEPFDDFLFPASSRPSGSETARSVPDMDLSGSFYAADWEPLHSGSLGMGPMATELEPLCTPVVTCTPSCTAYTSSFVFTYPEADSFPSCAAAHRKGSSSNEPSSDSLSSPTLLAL
T1 sequence (P05412 whole entry): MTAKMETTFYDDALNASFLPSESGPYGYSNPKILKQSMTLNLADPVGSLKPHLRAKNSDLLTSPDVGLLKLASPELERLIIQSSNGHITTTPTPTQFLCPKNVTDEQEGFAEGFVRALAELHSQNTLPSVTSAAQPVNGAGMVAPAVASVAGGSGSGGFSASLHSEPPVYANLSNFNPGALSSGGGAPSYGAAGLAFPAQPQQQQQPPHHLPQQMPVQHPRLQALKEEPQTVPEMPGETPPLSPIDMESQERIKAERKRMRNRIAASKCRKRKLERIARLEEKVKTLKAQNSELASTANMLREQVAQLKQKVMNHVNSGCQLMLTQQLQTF

| SMILES | effect in FOS:JUN interaction assay ([1]; specificity control, same concentrations as RED-SMU1 assay) | PB2 mRNA splicing [2] | reduction of NS2 to NS1 mRNA ratio [3] | splicing of the viral M1 mRNAs [4] | RSV-Firefly signals ([5]; A549 cells, 7.5 - 60 µM, 24 hpi) | inhibition at 60 µM [6] | inhibition of viral growth [7] | effect in FOS:JUN interaction assay [1] | growth of the tumoral cell line A549 [8] | cytotoxicity / cytostatic effect ([8]; A549 cells, 15, 30 and 60 µM, 24 and 48 hours of incubation) | logP [9] | Expression levels of RED and SMU1 proteins [10] | reduction of WSN-Nanoluc signals [7] | RSV-Firefly signals [5] | EC50 [6] | reduction of production of WSN infectious particles ([11]; 24 hpi) | reduction of production of WSN infectious particles ([11]; 48 hpi) | reduction of production of WSN infectious particles ([11]; 72 hpi) |
| --- | --- | --- | --- | --- | --- | --- | --- | --- | --- | --- | --- | --- | --- | --- | --- | --- | --- | --- |
| COc1cc(OC)cc(-c2cc3cnc(NCc4cn(C5CCN(Cc6ccccc6)CC5)nn4)nc3nc2NC(=O)NC(C)(C)C)c1 [LSP641] | none of the two compounds showed any significant effect | not affected | 30% | did not inhibit | only moderate reductions | 40% | – | – | – | – | – | – | – | – | – | – | – | – |
| CCN(CC)CCCCNc1ncc2cc(-c3cc(OC)cc(OC)c3)c(NC(=O)NC(C)(C)C)nc2n1 [PD173074, reference compound] | – | – | – | – | – | – | did not inhibit viral growth as efficiently as LSP61 | – | – | – | – | – | – | – | – | – | – | – |
| C#CCCCNc1ncc2cc(-c3cc(OC)cc(OC)c3)c(NC(=O)NC(C)(C)C)nc2n1 [LSP61] | – | not affected | 50% | did not inhibit | – | 90% | – | none of the two compounds showed any significant effect | inhibits the growth | no cytotoxicity but some cytostatic effect | 4.8 | decreased | 25 fold | only moderate reductions | ~15 µM | about 1000 fold | ~100 fold | ~10 fold |
